# Assay results as given in patent US10219516B2, “Molecules having pesticidal utility, and intermediates, compositions, and processes, related thereto” (priority 2015, dated 2019).
# What was measured:
# [1] = tested on: Cabbage Looper (Trichoplusia ni, TRIPNI); assay: Bioassay on Cabbage Looper (CL), 128-well diet tray assay; type: in vivo; conditions: Trichoplusia ni; Cabbage Looper, 128-well diet tray assay; read-out: CL rating
# Summary of the method: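 Test molecule is dissolved in 90:10 acetone-water and applied at 50 μg/cm^2 onto artificial diet, then dried. One to five second-instar larvae go into each of eight wells. Trays, sealed but vented, stay at 25° C., 14:10 light-dark, five to seven days, after which mortality is averaged.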
# [2] = tested on: Beet Armyworm (Spodoptera exigua, LAPHEG); assay: Bioassay on Beet Armyworm (BAW), 128-well diet tray assay; type: in vivo; conditions: Beet Armyworm, 128-well diet tray assay, read-out: BAW rating
# Summary of the method: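 Test molecule dissolved in acetone-water 90:10 is applied at 50 μg/cm^2 onto artificial diet and allowed to dry. Second instar larvae, one to five per well, are then added, and trays are vented and kept at 25° C. for five to seven days before mortality is scored.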
# [3] = tested on: Green Peach Aphid (Myzus persicae, MYZUPE); assay: Bioassay on Green Peach Aphid (GPA), foliar spray on infested cabbage seedlings; type: in vivo; conditions: 72 h, Green Peach Aphid, foliar spray on cabbage seedlings, read-out: GPA rating
# Summary of the method: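 Cabbage seedlings (2-3 true leaves) infested with 20-50 wingless adult and nymph aphids one day before treatment; sprayed to runoff at 200 ppm in 0.025% Tween 20 water with 20% acetone/methanol, four pots per treatment. Held three days at about 25° C; live aphids counted, % control by Abbott's correction versus solvent check.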
# [4] = tested on: Yellow Fever Mosquito (Aedes aegypti, AEDSAE); assay: Bioassay on Yellow Fever Mosquito (YFM), 96-well plate larval assay; type: in vivo; conditions: Yellow Fever Mosquito, 96-well plate larval assay
# Summary of the method: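 Aedes aegypti larvae (about 1 day old) in liver-powder water were added to plates dispensed from DMSO master plates (4000 ppm stock) diluted with 90:10 water/acetone; six replicate plates per master. Lidded plates were held at room temperature for 3 days, then each well was scored for mortality.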
Structure (SMILES),melting point,other results
O=C(O)C1C(c2cc(Cl)cc(C(F)(F)F)c2)C1(Cl)Cl (stereo not drawn),113 to 115 °C,–
Nc1ccc(OC(F)(F)F)c(C(=O)Nc2ccc(F)cc2)c1,115 to 117 °C,–
Nc1cc(Cl)cc(C(=O)Nc2ccc(F)cc2)c1,133 to 136 °C,–
O=C(O)C1C(c2cc(Cl)cc(Br)c2)C1(Cl)Cl (stereo not drawn),161 to 163 °C,–
O=C(O)C1C(c2cc(F)cc(Cl)c2)C1(Cl)Cl (stereo not drawn),138 to 140 °C,–
O=C(O)C1C(c2ccc(Cl)c(F)c2)C1(Cl)Cl (stereo not drawn),140 to 142 °C,–
Cc1cc(Cl)cc(C2C(C(=O)O)C2(Cl)Cl)c1 (stereo not drawn),124 to 126 °C,–
O=C(Nc1ccc(F)cc1)c1cccc([N+](=O)[O-])n1,169 to 170 °C,–
Cc1ccc(C(=O)Nc2ccc(F)cc2)cc1[N+](=O)[O-],136 to 138 °C,–
O=C(Nc1ccc(F)cc1)c1cc([N+](=O)[O-])ccc1OC(F)(F)F,175 to 177 °C,–
O=C(Nc1ccc(F)cc1)c1cc(Cl)cc([N+](=O)[O-])c1,209 to 210 °C,–
Cc1c(Cl)cc(C2C(C(=O)O)C2(Cl)Cl)cc1Cl (stereo not drawn),181 to 183 °C,–
Cc1cc(C2C(C(=O)O)C2(Cl)Cl)cc(Cl)c1Cl (stereo not drawn),157 to 159 °C,–
O=C(O)C1C(c2ccc(C(F)(F)C(F)(F)F)cc2)C1(Cl)Cl (stereo not drawn),116 to 118 °C,–
CCOc1ccc(C2C(C(=O)O)C2(Cl)Cl)cc1 (stereo not drawn),129 to 130 °C,–
O=C(O)C1C(c2cc(F)c(Br)c(F)c2)C1(Cl)Cl (stereo not drawn),178.3 to 188.6 °C,–
COc1c(Cl)cc(C2C(C(=O)Nc3ccc(Cl)c(C(=O)O)c3)C2(Cl)Cl)cc1Cl (stereo not drawn),227 to 231 °C,–
O=C(O)c1cc(NC(=O)C2C(c3cc(Cl)cc(Cl)c3)C2(Cl)Cl)cc(Cl)c1Cl (stereo not drawn),231 to 235 °C,–
O=C(O)c1cc(NC(=O)C2C(c3cc(Cl)cc(Cl)c3)C2(Cl)Cl)c(Cl)cc1Cl (stereo not drawn),263 to 266 °C,–
Nc1ccc(Cl)c(C(=O)Nc2ccc(-c3ncco3)cc2)c1,227 °C (dec.),–
Nc1ccc(Cl)c(C(=O)Nc2ccc(-n3cccn3)cc2)c1,50 to 81 °C,–
CCc1ccc(N)cc1C(=O)Nc1ccc(F)cc1,129 to 131 °C,–
Cc1cc(NC(=O)OC(C)(C)C)ccc1NC(=O)c1cccc(N)c1,143 to 161 °C,–
Cc1cc(NC(=O)OC(C)(C)C)ccc1NC(=O)c1cc([N+](=O)[O-])ccc1Cl,195 to 200 °C,–

Structure (SMILES),melting point,other results
O=C(Nc1ccc(F)c(C(F)(F)F)c1)c1cc([N+](=O)[O-])ccc1Cl,192 to 202 °C,–
O=C(Nc1ccc(-n2cccn2)cc1)c1cc([N+](=O)[O-])ccc1Cl,200 to 205 °C,–
O=C(Nc1ccc(-c2ncco2)cc1)c1cc([N+](=O)[O-])ccc1Cl,192 to 194 °C,–
COc1ccc(C2C(c3cc(F)c(Br)c(F)c3)C2(Cl)Cl)cc1 (stereo not drawn),104 to 109.3 °C,–
C=Cc1ccc([N+](=O)[O-])cc1C(=O)Nc1ccc(F)cc1,158 to 160 °C,–
Cc1ccc([N+](=O)[O-])cc1NC(=O)OC(C)(C)C,137 to 145 °C,–
Cc1cc([N+](=O)[O-])ccc1N(C)C(=O)OC(C)(C)C,98 to 101 °C,–
Cc1ccc([N+](=O)[O-])cc1N(C)C(=O)OC(C)(C)C,57 to 60 °C,–
CC(C)(C)OC(=O)N(C(=O)OC(C)(C)C)c1c(N)cc(F)cc1F,102 to 107 °C,–
CC(C)(C)OC(=O)N(C(=O)OC(C)(C)C)c1ccc(F)cc1N,104 to 115 °C,–
COc1c(Cl)cc(C2C(C(=O)O)C2(Cl)Cl)cc1Cl (stereo not drawn),161 to 164 °C,–
N#Cc1cc(Cl)cc(C2C(C(=O)O)C2(Cl)Cl)c1 (stereo not drawn),173 to 175 °C,–
COc1ccc(/C=C/c2ccc(Cl)c(Cl)c2)cc1,91 to 94 °C,–
O=C(O)C1C(c2cccc(C(F)(F)F)c2)C1(Cl)Cl (stereo not drawn),86 to 88 °C,–
O=C(O)C1C(c2ccc(OC(F)(F)F)c(Cl)c2)C1(Cl)Cl (stereo not drawn),134 to 136 °C,–
O=C(O)C1C(c2cc(Cl)c(Cl)cc2Cl)C1(Cl)Cl (stereo not drawn),189 to 192 °C,–
O=C(O)C1C(c2cc(C(F)(F)F)cc(C(F)(F)F)c2)C1(Cl)Cl (stereo not drawn),112 to 114 °C,–
O=C(O)C1C(c2cc(Br)cc(Br)c2)C1(Cl)Cl (stereo not drawn),157 to 159 °C,–
O=C(O)C1C(c2ccc(F)c(Cl)c2)C1(Cl)Cl (stereo not drawn) [C16],121 to 123 °C,–
O=C(O)C1C(c2ccc(F)c(Cl)c2)C1(Cl)Cl (stereo not drawn) [C420],119 to 121 °C,–
"O=C(Nc1ccc2ncsc2c1)c1cc(NC(=O)C2C(c3cc(Cl)cc(Cl)c3)C2(Cl)Cl)ccc1Cl (stereo not drawn) [F434, N-(Benzo[d]thiazol-6-yl)-2-chloro-5-(trans)-2,2-dichloro-3-(3,5-dichlorophenyl)cyclopropane-1-carboxamido)benzamide]",–,pest or weed control at 50 µg/cm2 [1]: 50 to 100%; pest or weed control at 50 µg/cm2 [2]: 50 to 100%; pest or weed control at 200 µg/mL [3]: 0 to 80%; YFM rating [4]: A (80-100)
"O=C(Nc1ccc2nc(Cl)[nH]c2c1)c1cc(NC(=O)C2C(c3cc(Cl)cc(Cl)c3)C2(Cl)Cl)ccc1Cl (stereo not drawn) [F438, 2-Chloro-N-(2-chloro-1H-benzo[d]imidazol-6-yl)-5-(trans)-2,2-dichloro-3-(3,5-dichlorophenyl)cyclopropane-1-carboxamido)benzamide]",–,pest or weed control at 50 µg/cm2 [1]: 50 to 100%; pest or weed control at 50 µg/cm2 [2]: 50 to 100%; pest or weed control at 200 µg/mL [3]: 0 to 80%; YFM rating [4]: B (More than 0-Less than 80)
O=C(Nc1ccc(F)cc1F)c1cc(NC(=O)[C@H]2[C@H](c3ccc(F)c(Cl)c3)C2(Cl)Cl)ccc1Cl [F533],–,pest or weed control at 50 µg/cm2 [1]: 50 to 100%; pest or weed control at 50 µg/cm2 [2]: 50 to 100%; pest or weed control at 200 µg/mL [3]: 80 to 100%; YFM rating [4]: A (80-100)
"Nc1c(F)ccc(NC(=O)c2cc(NC(=O)[C@H]3[C@H](c4ccc(Cl)c(Br)c4)C3(Cl)Cl)ccc2Cl)c1F [F579, N-(3-Amino-2,4-difluorophenyl)-5-((1R,3R)-3-(3-bromo-4-chlorophenyl)-2,2-dichlorocyclopropane-1-carboxamido)-2-chlorobenzamide]",–,pest or weed control at 50 µg/cm2 [1]: 50 to 100%; pest or weed control at 50 µg/cm2 [2]: 50 to 100%; pest or weed control at 200 µg/mL [3]: 80 to 100%; YFM rating [4]: A (80-100)
